Results reported in PMC8292346, “Dysfunction of the key ferroptosis-surveilling systems hypersensitizes mice to tubular necrosis during acute kidney injury” (Nature Communications, 2021).
“And” between values parts separate entries of the source, which are not always exact repeats. Equal values may be shown once.

Columns and labels:
NIH3T3 cells = assay: TZ-induced necroptosis, 7-AAD/annexin V flow cytometry; assay type: cell-based, murine; settings: NIH3T3, TZ 16 h
Method: To induce necroptosis in a human cell line, HT29 cells were stimulated at the indicated time points with 20 ng/ml human TNFα (Biolegend), 1 μM SMAC-mimetics (Birinapant, Chemietek), and 20 μM zVAD-fmk (Selleckchem, herein referred to as zVAD). For the induction of necroptosis in NIH3T3 cells, cells were incubated with 20 ng/ml TNF-α and 20 μM zVAD for indicated time points. […] Cells were seeded in six-well plates or petri dishes. […] After indicated time points, cells were collected and prepared for flow cytometry, immunoblotting, and/or LDH release assays.
Cells were harvested and the pellets were washed twice in PBS and stained with 5 μl of 7-AAD (BD Biosciences) and 5 μl of annexin-V-FITC (BD Biosciences) added to 100 μl annexin-V binding buffer (BD Biosciences). After 15 min, cells were recorded on the LSRII with the FACS Diva 6.1.1 software (BD Biosciences) and subsequently analyzed with the FlowJo v10 software (Tree Star).

C57BL/6N mice [1] = assay: Acute oxalate nephropathy (CaOx-induced AKI); assay type: in vivo, mouse
Method: C57BL/6N mice were procured from Charles River Laboratories (Sulzfeld, Germany) and co-housed in groups of four in filter top cages with unlimited access to food and water. Cages, nestlets, food, and water were sterilized by autoclaving before use. Mice received a single intraperitoneal (i.p.) injection of 100 mg/kg sodium oxalate (Santa Cruz Biotechnology) and 3% sodium oxalate in drinking water and kidneys were harvested after 24 h. […] Blood and kidneys were collected at sacrifice by cervical dislocation. The middle section of each kidney was fixed for 24 h in formalin to be embedded in paraffin for histological analysis. Intrarenal crystal precipitations were quantified by Pizzolato staining. The experimental procedure was approved by the Regierung von Oberbayern, München, Germany (ROB-55.2-2532.Vet_02-18-127).
The tubular injury was scored by detecting the percentage of necrotic structures, dilated tubules, casts and cellular infiltrates per HPF. To do so a grid with a raster size of 2.5% of the total image area was imposed on top of each image and the number of squares covering either of the histopathological features was counted individually or as a composite (summary score). Pizzolato’s staining visualized calcium oxalate crystals and crystal deposit formation in the kidney was evaluated the following: no deposits = 0 point; crystals in papillary tip = 1 point; crystals in cortical medullary junction = 2 points; crystals in cortex = 3 points.
A TUNEL kit (Cell death detection kit, Roche) was used to quantify the number of cells with DNA strand breaks per HPF. The green fluorescent area was measured and the number of stained cells per slide was counted.

CCK1 (CCKA) (h) = CCK1 (CCKA) (h) (Homo sapiens, UniProt P32238); assay: Off-target radioligand binding screen; settings: read-out: CCK1 (CCKA) (h) (#): inhibition of radioligand binding
CCK1 (CCKA) (h), sequence (P32238 whole entry): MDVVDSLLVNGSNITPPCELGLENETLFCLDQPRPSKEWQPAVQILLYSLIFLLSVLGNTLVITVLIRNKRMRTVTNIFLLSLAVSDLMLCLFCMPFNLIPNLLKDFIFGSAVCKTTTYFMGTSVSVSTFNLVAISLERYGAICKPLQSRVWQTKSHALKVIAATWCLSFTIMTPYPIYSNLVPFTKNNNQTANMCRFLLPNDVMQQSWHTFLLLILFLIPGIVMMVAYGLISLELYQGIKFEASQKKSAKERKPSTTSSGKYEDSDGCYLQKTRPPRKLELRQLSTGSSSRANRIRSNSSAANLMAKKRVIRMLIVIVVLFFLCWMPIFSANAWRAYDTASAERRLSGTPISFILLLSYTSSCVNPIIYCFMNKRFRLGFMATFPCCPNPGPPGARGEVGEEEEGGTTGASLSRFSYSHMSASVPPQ

β2(h) = β2(h) (Homo sapiens, UniProt P07550); assay: Off-target radioligand binding screen; settings: read-out: β2(h) ($): inhibition of radioligand binding
β2(h), sequence (P07550 whole entry): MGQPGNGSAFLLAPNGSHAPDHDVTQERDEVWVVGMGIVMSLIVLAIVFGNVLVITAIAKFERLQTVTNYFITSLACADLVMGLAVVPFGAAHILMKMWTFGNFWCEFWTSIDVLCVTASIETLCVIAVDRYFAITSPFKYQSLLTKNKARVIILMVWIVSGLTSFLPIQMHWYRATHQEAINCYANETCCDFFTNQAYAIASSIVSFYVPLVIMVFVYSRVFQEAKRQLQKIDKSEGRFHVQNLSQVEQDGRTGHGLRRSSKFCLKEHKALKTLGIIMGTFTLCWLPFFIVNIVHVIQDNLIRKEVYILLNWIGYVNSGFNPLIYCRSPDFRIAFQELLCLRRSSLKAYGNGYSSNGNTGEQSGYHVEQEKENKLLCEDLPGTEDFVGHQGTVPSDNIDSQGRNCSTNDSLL

[2] = Stability in human plasma; assay type: in vitro ADME; settings: 1 µM, 37 °C
Method: Plasma stability is defined as the percentage of parent compound remaining in plasma over the time. Here, incubations were carried out in 5 aliquots of 70 µl each (one for each time point), in duplicates. […] The percentage of the test compounds remaining after incubation in plasma and their half-lives (T1/2) was calculated.

[3] = tested on: Ca2+ channel (L, dihydropyridine site); assay: Off-target radioligand binding screen; settings: Nec-1f 10 µM
C57BL/6N mice [4] = assay: Acute oxalate nephropathy (CaOx-induced AKI); assay type: in vivo, mouse; settings: sodium oxalate, 1.65 mg/kg Nec-1f, individual animals
Na+ channel (site 2) = assay: Off-target radioligand binding screen; settings: Nec-1f 10 µM
[5] = Inhibited co-autoxidation of cumene and STY-BODIPY (radical-trapping antioxidant activity); settings: AIBN-initiated; even at 5-fold higher concentration than PMC
M2 (h) = M2 (h) (Homo sapiens, UniProt P08172); assay: Off-target radioligand binding screen; settings: read-out: M2 (h) ($): inhibition of radioligand binding
M2 (h), sequence (P08172 whole entry): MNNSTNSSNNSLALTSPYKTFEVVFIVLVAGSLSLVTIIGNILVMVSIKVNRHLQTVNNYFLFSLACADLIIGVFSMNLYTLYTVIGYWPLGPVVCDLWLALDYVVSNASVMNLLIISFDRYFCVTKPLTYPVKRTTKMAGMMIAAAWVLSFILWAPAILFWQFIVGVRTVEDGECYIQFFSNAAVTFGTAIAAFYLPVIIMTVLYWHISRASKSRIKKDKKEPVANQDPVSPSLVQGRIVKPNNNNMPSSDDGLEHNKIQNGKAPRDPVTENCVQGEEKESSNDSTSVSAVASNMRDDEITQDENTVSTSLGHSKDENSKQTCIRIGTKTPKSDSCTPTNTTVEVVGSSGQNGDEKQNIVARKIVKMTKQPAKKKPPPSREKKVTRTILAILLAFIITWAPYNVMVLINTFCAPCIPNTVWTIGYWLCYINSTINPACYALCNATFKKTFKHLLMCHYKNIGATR

GR (h) = GR (h) (Homo sapiens, UniProt P04150); assay: Off-target radioligand binding screen; settings: read-out: GR (h) (#): inhibition of radioligand binding, Nec-1f 10 µM
GR (h), sequence (P04150 whole entry): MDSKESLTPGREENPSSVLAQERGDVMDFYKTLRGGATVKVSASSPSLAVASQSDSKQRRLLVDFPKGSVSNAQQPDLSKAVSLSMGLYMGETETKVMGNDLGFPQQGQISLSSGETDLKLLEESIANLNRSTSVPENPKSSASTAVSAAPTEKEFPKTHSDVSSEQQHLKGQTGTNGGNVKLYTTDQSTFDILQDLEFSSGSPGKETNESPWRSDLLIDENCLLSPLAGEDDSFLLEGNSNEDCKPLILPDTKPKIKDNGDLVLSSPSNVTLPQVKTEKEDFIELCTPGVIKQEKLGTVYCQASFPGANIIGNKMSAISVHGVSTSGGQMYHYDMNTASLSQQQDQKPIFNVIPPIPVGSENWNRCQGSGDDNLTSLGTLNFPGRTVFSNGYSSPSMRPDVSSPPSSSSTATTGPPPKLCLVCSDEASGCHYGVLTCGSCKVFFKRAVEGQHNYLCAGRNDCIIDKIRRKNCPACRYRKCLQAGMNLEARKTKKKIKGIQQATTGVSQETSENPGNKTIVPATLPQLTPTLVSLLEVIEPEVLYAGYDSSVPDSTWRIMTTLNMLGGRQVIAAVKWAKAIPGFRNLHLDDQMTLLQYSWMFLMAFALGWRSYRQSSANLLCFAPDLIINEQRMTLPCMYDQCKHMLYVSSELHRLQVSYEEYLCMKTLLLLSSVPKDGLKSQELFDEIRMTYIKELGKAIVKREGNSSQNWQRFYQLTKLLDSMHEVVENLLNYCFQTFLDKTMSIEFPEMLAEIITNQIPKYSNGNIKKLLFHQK

N neuronal α4β2 (h) = N neuronal α4β2 (h) (Homo sapiens, UniProt P17787+P43681); assay: Off-target radioligand binding screen; settings: read-out: N neuronal α4β2 (h) (#): inhibition of radioligand binding
M1(h) = M1(h) (Homo sapiens, UniProt P11229); assay: Off-target radioligand binding screen; settings: read-out: M1(h) ($): inhibition of radioligand binding
M1(h), sequence (P11229 whole entry): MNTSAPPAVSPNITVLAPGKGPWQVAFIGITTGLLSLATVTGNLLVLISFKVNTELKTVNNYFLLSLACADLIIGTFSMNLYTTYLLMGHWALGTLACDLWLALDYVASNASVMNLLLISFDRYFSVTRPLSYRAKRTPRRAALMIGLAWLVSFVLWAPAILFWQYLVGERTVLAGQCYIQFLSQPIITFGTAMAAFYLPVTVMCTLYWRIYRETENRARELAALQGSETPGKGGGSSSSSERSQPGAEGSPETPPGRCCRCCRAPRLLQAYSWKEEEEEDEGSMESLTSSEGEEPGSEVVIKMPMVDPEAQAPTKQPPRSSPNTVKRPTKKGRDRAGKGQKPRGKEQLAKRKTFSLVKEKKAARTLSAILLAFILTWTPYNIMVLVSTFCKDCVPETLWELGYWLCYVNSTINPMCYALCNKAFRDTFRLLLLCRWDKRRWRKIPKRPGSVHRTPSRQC

M3(h) = M3(h) (Homo sapiens, UniProt P20309); assay: Off-target radioligand binding screen; settings: read-out: M3(h) ($): inhibition of radioligand binding
M3(h), sequence (P20309 whole entry): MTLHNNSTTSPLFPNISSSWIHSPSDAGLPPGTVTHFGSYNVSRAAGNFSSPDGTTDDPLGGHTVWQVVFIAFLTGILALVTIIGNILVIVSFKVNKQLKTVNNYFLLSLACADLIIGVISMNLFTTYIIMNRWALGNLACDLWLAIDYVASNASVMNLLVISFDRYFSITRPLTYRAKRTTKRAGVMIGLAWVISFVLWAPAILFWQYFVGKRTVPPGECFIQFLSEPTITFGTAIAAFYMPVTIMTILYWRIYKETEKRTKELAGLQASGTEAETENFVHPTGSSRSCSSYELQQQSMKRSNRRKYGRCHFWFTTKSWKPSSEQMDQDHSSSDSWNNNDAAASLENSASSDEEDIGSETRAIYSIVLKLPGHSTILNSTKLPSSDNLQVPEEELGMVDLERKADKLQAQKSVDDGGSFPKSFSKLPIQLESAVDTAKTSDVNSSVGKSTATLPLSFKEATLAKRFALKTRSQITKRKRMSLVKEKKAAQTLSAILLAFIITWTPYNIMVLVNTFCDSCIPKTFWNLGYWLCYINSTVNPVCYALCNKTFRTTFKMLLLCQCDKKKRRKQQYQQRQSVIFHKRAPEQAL

5-HT1A(h) = 5-HT1A(h) (Homo sapiens, UniProt P08908); assay: Off-target radioligand binding screen; settings: read-out: 5-HT1A(h) (#): inhibition of radioligand binding
5-HT1A(h), sequence (P08908 whole entry): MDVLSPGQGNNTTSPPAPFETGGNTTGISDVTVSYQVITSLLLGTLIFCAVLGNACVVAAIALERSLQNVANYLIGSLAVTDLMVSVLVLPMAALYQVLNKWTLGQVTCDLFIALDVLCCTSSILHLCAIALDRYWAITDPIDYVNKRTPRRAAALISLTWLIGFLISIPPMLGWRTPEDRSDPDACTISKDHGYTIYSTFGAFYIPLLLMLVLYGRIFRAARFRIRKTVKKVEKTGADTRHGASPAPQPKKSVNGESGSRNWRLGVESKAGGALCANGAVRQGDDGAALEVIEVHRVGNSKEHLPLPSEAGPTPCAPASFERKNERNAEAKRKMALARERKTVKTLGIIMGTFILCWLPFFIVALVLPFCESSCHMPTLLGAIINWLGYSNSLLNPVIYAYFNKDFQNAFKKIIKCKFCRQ

kappa (h) (KOP) = kappa (h) (KOP) (Homo sapiens, UniProt P41145); assay: Off-target radioligand binding screen; settings: read-out: kappa (h) (KOP) (#): inhibition of radioligand binding
kappa (h) (KOP), sequence (P41145 whole entry): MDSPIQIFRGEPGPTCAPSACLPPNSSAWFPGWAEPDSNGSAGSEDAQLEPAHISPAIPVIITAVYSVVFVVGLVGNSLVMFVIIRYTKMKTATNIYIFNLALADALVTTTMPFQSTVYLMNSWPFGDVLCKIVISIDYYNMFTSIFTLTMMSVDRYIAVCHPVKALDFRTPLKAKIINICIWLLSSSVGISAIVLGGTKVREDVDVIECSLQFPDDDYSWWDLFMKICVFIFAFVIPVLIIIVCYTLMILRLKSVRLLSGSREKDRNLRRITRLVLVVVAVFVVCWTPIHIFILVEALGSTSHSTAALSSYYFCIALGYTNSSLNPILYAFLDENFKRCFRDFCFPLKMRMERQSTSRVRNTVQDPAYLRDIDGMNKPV

β1(h) = β1(h) (Homo sapiens, UniProt P08588); assay: Off-target radioligand binding screen; settings: read-out: β1(h) (#): inhibition of radioligand binding
β1(h), sequence (P08588 whole entry): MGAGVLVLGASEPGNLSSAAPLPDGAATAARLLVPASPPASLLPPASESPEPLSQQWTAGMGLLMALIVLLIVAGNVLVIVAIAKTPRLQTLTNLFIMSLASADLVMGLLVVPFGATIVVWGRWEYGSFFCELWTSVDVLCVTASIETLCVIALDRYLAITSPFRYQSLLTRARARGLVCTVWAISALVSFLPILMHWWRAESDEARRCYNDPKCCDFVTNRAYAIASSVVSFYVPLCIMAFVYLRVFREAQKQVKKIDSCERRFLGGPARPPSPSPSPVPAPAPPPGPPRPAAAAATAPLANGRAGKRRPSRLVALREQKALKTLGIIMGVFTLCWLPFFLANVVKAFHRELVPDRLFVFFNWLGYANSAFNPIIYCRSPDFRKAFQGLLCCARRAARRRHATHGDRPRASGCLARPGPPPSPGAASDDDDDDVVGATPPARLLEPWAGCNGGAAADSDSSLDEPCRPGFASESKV

CB1(h) = CB1(h) (Homo sapiens, UniProt P21554); assay: Off-target radioligand binding screen; settings: read-out: CB1(h) (#): inhibition of radioligand binding
CB1(h), sequence (P21554 whole entry): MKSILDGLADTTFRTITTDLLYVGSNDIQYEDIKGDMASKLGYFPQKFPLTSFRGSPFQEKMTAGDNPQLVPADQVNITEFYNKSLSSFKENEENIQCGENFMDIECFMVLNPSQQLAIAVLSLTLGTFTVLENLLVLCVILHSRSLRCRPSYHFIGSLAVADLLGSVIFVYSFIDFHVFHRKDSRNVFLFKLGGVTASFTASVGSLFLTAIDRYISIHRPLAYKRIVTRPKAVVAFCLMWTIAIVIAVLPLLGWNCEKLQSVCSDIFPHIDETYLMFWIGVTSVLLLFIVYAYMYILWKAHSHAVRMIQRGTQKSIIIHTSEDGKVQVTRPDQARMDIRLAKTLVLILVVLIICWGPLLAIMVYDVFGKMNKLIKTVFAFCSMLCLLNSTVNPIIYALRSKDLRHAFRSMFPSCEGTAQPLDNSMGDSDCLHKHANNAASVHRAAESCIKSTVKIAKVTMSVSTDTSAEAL

[6] = 24 h after CaOx, 1.65 mg/kg Nec-1f, individual animals, 1.65 mg/kg

SMILES: CCOC(=O)c1ccc(NC2CCCCC2)c(N)c1 [Fer-1, ferrostatin-1]
- 7-AAD/annexin V flow cytometry, source data of bar graph Fig2i (NIH3T3 cells): 7.78% and 9.49% and 6.87% and 10.1%

SMILES: CN1C(=O)C(Cc2c[nH]c3c(Cl)cccc23)NC1=S (stereo not drawn) [Nec-1f]
- CaOx crystal deposition vs vehicle (C57BL/6N mice [1]; 1.65 mg/kg body weight): comparable in both groups
- Tubular injury vs vehicle (C57BL/6N mice [1]; 1.65 mg/kg body weight): reduced tubular injury
- Serum creatinine (C57BL/6N mice [1]; [6]): 75 µmol/L and 84 µmol/L and 73 µmol/L and 71 µmol/L and 67 µmol/L and 78 µmol/L and 89 µmol/L and 69 µmol/L
- Serum urea (C57BL/6N mice [1]; [6]): 70.6 mmol/L and 52 mmol/L and 57.6 mmol/L and 47.8 mmol/L and 51.8 mmol/L and 64.8 mmol/L and 59.8 mmol/L
- Number of TUNEL-positive cells vs vehicle (C57BL/6N mice [1]; CaOx): significantly decreased
- Serum creatinine vs vehicle (C57BL/6N mice [1]; CaOx, 1.65 mg/kg): lower concentrations
- Serum urea vs vehicle (C57BL/6N mice [1]; CaOx, 1.65 mg/kg): lower concentrations
- TUNEL (C57BL/6N mice [1]; kidneys 24 h after onset of CaOx treatment, Nec-1f, individual animals): 12.5 positive cells per HPF and 23.5 positive cells per HPF and 14 positive cells per HPF and 17 positive cells per HPF and 9.5 positive cells per HPF and 16 positive cells per HPF and 15 positive cells per HPF
- Tubular injury (PAS) (C57BL/6N mice [1]; sodium oxalate, 1.65 mg/kg Nec-1f, individual animals, 1.65 mg/kg): 5.4 % area per HPF and 19.2 % area per HPF and 9 % area per HPF and 17.2 % area per HPF and 7.8 % area per HPF and 11.7 % area per HPF and 12.7 % area per HPF
- inhibition at 10 µM (CCK1 (CCKA) (h)): 28.3%
- inhibition at 10 µM (β2(h)): 1.4%
- Human plasma stability, parent compound remaining ([2]; 0 min): 100%
- Human plasma stability, parent compound remaining ([2]; 20 min): 97%
- Human plasma stability, parent compound remaining ([2]; 40 min): 93%
- Human plasma stability, parent compound remaining ([2]; 60 min): 89%
- Human plasma stability, parent compound remaining ([2]; 120 min): 82%
- Ca2+ channel (L, dihydropyridine site) ($): inhibition of radioligand binding [3]: 40%
- CaOx deposition score [1-10] (Pizzolato staining) (C57BL/6N mice [4]): 3 and 6 and 4
- Na+ channel (site 2) ($): inhibition of radioligand binding (Na+ channel (site 2)): -14.5%
- Radical-trapping activity in cumene/STY-BODIPY co-autoxidation [5]: no activity
- inhibition at 10 µM (M2 (h)): -1.7%
- inhibition at 10 µM (GR (h)): ≥ 50%
- inhibition at 10 µM (N neuronal α4β2 (h)): 3.6%
- inhibition at 10 µM (M1(h)): -7.3%
- inhibition at 10 µM (M3(h)): -4.9%
- inhibition at 10 µM (5-HT1A(h)): 9.1%
- inhibition at 10 µM (kappa (h) (KOP)): 16%
- inhibition at 10 µM (β1(h)): 3.7%
- inhibition at 10 µM (CB1(h)): -24.7%
